Source: patent US9796700B2 (Celgene CAR LLC, priority 2013, dated 2017)

Experiments:
[1] = tested on: ERK1 phosphorylation of its substrate RSK in HT29 cells; experiment: pRSK MSD Assay in HT29 cells; assay type: cell-based; conditions: Homo sapiens, HT-29, HT29 cells; read-out: ERK1 PRSK MSD HT29 EC50
In short: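 HT29 cells were serum-starved overnight in 0.1% FBS, then treated with compound for 120 min at 37 °C. Lysates were assayed on MSD plates with RSK capture and phospho-RSK detection antibodies using electrochemiluminescence read-out.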

Erk1 [2] = target: T1, Erk1 (Homo sapiens (Human), UniProt P27361); experiment: Protein Mass Modification Assay (intact protein MALDI); assay type: binding
In short: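 Percent covalent modification comes from the intact-protein MALDI centroid mass shift, treated versus control, divided by compound MW. Before analysis, human Erk1 was exposed to compound at 10-fold excess over protein for 60 min at room temperature.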
Target sequence in this assay (P27361 whole entry, looked up): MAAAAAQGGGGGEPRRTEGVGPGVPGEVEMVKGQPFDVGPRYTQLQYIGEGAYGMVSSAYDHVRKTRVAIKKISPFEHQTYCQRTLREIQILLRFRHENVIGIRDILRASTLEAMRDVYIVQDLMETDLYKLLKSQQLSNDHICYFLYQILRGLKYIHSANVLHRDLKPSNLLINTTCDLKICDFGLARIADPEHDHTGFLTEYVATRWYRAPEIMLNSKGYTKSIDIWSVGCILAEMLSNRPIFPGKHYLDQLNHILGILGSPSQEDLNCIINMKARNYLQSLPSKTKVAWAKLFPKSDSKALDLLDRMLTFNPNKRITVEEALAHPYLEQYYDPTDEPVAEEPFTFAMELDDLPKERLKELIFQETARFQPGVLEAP

[3] = tested on: p-RSK (ERK activity) in cells after compound washout; experiment: Measurement of duration of action of test compounds (pRSK after washout); assay type: cell-based; conditions: 6 hr after compound washout
Protocol: The protocol below describes an assay to measure the kinase activity of ERK1 to phosphorylate its substrate, RSK, in the presence of a test compound. This experiment was conducted using a Mesoscale Discovery plate. The day before the assay, HT29 cells were split and plated at 50,000 cells/well in complete growth media. After allowing cells to adhere, the media was removed and replaced with media containing 0.1% FBS and incubated overnight. Blank MDS plates were coated with 25 μl/well RSK capture antibody and incubated at 4° C. overnight. The next day, the media was removed and replaced with 100 μl of media containing a test compound and incubated for 120 minutes at 37° C. The media was removed and replaced with 55 μl of well lysis buffer with protease and phosphatase inhibitors provided in the kit, followed by incubation at 4° C. for 30 minutes. 50 μl of lysate was transferred to a blocked MSD plate, followed by incubation at room temperature for 2 hours under constant shaking. The plate was washed 3 times with MSD wash buffer (cat#R617TX), and 25 μl/well phospho-RSK (pRSK) detection antibody was added with an appropriate Sulfo-tagged anti-species detection antibody diluted in 1% BSA in MSD wash buffer. This mixture was incubated for 1 hour at room temperature under constant shaking. The plate was washed 3 times, and 150 μl 1×MSD read buffer was added, followed by signal detection in an MSD plate reader.
Measurement of Duration of Action of Test Compounds
One day before the assay, the cells were split and added at 50,000 cells per well in flat-bottom 96 well plate in 200 μl of growth media. The next day, the medium was discarded, 100 μl medium containing test compounds was added, and the plate was incubated at 37° C. for 120 minutes. The medium was discarded, and the cells were rinsed 3 times with PBS followed by addition of 200 μl of fresh grow medium. The plate was returned to a 37° C. incubator, and separate cell lysates were made using MSD lysis buffer after 0.25, 0.5, 1, 2, 4, 6, 8 and 18 or 24 hours. Thereafter, pRSK was measured as described above in the section entitled pRSK MSD Assay. The data is presented in Table A under the column titled “p-RSK inhibition at 6 hr (%).”

MEK1 activated ERK1 = MEK1 activated ERK1 (Homo sapiens (Human), UniProt P27361); experiment: Omnia continuous-read kinase assay for potency against MEK1 activated ERK1; assay type: biochemical; conditions: MEK1 activated ERK1, WT, ATP at KM
Chain of MEK1 activated ERK1 (P27361 whole entry): as the sequence (P27361 whole entry, looked up) above
In short: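 Apparent IC50 came from initial reaction slopes (RFU vs time) plotted against log inhibitor with a variable-slope fit. Reactions were started with ERK1 (4 nM final) added to 50 μM ATP, roughly at its appKM, and 10 μM Sox-conjugated ST17 peptide in 20 mM Tris pH 7.5, 5 mM MgCl2. Fluorescence was monitored every 71 seconds.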

Erk1 [4] = target: T1, Erk1; experiment: Measurement of Erk occupancy with biotinylated covalent probe I-299; assay type: cell-based; conditions: HT-29 cells
Protocol: Measurement of Erk Occupancy with Biotinylated Covalent Probe
This experiment measured occupancy of the ERK1 target by compounds according to the invention. This experiment was conducted using the Mesoscale Discovery test kit (Cat. #N45107B). One day before the assay, cells were split and added at 50,000 cells per well to a flat-bottom 96 well plate in 200 μl of growth medium. The next day, the medium was discarded, 100 μl medium containing test compound was added, and the plate was incubated at 37° C. for 120 minutes. The plate was rinsed once with PBS, and 50 μl lysis buffer with test compound was added. The plate was incubated at 4° C. for 30 min, and 30 μl of lysate was transferred to a plate to capture total and phosphor-Erk. Biotinylated probe I-299 was diluted in lysis buffer and added to each well to a final concentration of 0.2 μM. The plate was incubated for 2 hr under constant shaking at room temperature. The plate was washed 3 times with MSD wash buffer. To detect the biotinylated probe bonding, tagged streptavidin was added (MSD, Cat#R32AD-1) at 1 μg/ml, 25 μl/well, followed by a 60 min incubation under shaking. The plate was washed 3 times, 150 μl MSD Read Buffer (Cat#R61TX) was added and the plate was read in a plate reader manufactured by MSD. Percent occupancy by test compound at Erk was calculated by comparing the chemiluminescence readings from treated cells as compared to the chemiluminescence readings in untreated controls (which are defined as 100% probe bonding or 0% occupancy). The amount of covalent probe signal divided by the amount of ERK signal for samples with no test compound treatment represents the maximum probe signal (MPS). In samples treated with test compound prior to covalent probe, the ratio of probe signal to ERK signal (the test probe signal, TPS) was reduced by the degree of target occupancy by the test compound which blocks covalent probe binding. The difference between the MPS and the TPS, divided by the MPS gave the target occupancy by the test compound. This ratio was then expressed as a percent occupancy. Results from this assay are provided in Table A below under the column “Occupancy EC50 (nM) HT-29.”
Target sequence in this assay (P27361 2-379 limits assumed): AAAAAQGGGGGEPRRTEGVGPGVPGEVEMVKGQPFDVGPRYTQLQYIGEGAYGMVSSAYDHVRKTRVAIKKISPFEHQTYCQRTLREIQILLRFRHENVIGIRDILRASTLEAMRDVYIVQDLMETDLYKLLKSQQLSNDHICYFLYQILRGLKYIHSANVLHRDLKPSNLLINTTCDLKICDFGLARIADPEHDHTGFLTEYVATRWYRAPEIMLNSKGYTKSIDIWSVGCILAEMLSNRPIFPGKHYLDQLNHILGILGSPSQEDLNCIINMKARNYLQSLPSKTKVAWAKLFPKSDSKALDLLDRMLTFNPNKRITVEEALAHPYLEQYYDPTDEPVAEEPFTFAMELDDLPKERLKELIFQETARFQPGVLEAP

Structure (SMILES): C=CC(=O)Nc1ccccc1Nc1nc(N[C@H]2CCCN(C(=O)CO)C2)ncc1C(F)(F)F [Compound I-15, (S)—N-(2-((2-((1-(2-hydroxyacetyl)piperidin-3-yl)amino)-5-(trifluoromethyl)pyrimidin-4-yl)amino)phenyl)acrylamide]
- EC50 [1]: < 100 nM
- ERK1 Mass Mod (%) (Erk1 [2]): E (provided a mass modification of ≧70%)
- p-RSK inhibition at 6 hr (%) [3]: E (provided a p-RSK inhibition percent of ≧70%)
- IC50 (MEK1 activated ERK1): < 100 nM

Structure (SMILES): C=CC(=O)Nc1ccccc1Nc1nc(Nc2cc(C(N)=O)ccc2C)ncc1C(F)(F)F [Compound I-68, 3-(4-(2-Acrylamidophenylamino)-5-(trifluoromethyl)pyrimidin-2-ylamino)-4-methylbenzamide]
- EC50 (Erk1 [4]): < 100 nM
- ERK1 Mass Mod (%) (Erk1 [2]): E (provided a mass modification of ≧70%)
- p-RSK inhibition at 6 hr (%) [3]: E (provided a p-RSK inhibition percent of ≧70%)
- IC50 (MEK1 activated ERK1): < 100 nM

Structure (SMILES): C=CC(=O)Nc1cc(C)ccc1Nc1nc(Nc2cc(C(N)=O)ccc2C)ncc1C(F)(F)F [Compound I-79, 3-((4-((2-Acrylamido-4-methylphenyl)amino)-5-(trifluoromethyl)pyrimidin-2-yl)amino)-4-methylbenzamide]
- ERK1 Mass Mod (%) (Erk1 [2]): E (provided a mass modification of ≧70%)
- p-RSK inhibition at 6 hr (%) [3]: E (provided a p-RSK inhibition percent of ≧70%)

Structure (SMILES): C=CC(=O)Nc1ccccc1Nc1nc(Nc2cc(OC)ncc2C)ncc1C(F)(F)F [Compound I-85, N-(2-((2-((2-Methoxy-5-methylpyridin-4-yl)amino)-5-(trifluoromethyl)pyrimidin-4-yl)amino)phenyl)acrylamide]
- ERK1 Mass Mod (%) (Erk1 [2]): G (proived a mass modification ≦30%)
- p-RSK inhibition at 6 hr (%) [3]: E (provided a p-RSK inhibition percent of ≧70%)
- IC50 (MEK1 activated ERK1): 101 to 500 nM

Structure (SMILES): C=CC(=O)Nc1ccccc1Nc1nc(Nc2cncc(OC)c2)ncc1C(F)(F)F [Compound I-86, N-(2-((2-((5-Methoxypyridin-3-yl)amino)-5-(trifluoromethyl)pyrimidin-4-yl)amino)phenyl)acrylamide]
- p-RSK inhibition at 6 hr (%) [3]: E (provided a p-RSK inhibition percent of ≧70%)
- IC50 (MEK1 activated ERK1): < 100 nM

Structure (SMILES): C=CC(=O)Nc1cc(C)ccc1Nc1nc(N[C@H]2CCCN(C(=O)CO)C2)ncc1Cl [Compound I-140, (S)—N-(2-((5-chloro-2-((1-(2-hydroxyacetyl)piperidin-3-yl)amino)pyrimidin-4-yl)amino)-5-methylphenyl)acrylamide]
- ERK1 Mass Mod (%) (Erk1 [2]): E (provided a mass modification of ≧70%)
- p-RSK inhibition at 6 hr (%) [3]: F (provided a p-RSK inhibition percent of 31-69%)
- IC50 (MEK1 activated ERK1): < 100 nM

Structure (SMILES): C=CC(=O)Nc1cc(C)ccc1Nc1nc(Nc2cc(C(N)=O)ccc2C)ncc1Cl [Compound I-229, 3-((4-((2-acrylamido-4-methylphenyl)amino)-5-chloropyrimidin-2-yl)amino)-4-methylbenzamide]
- ERK1 Mass Mod (%) (Erk1 [2]): E (provided a mass modification of ≧70%)
- p-RSK inhibition at 6 hr (%) [3]: E (provided a p-RSK inhibition percent of ≧70%)
- IC50 (MEK1 activated ERK1): < 100 nM

Structure (SMILES): C=CC(=O)Nc1ccccc1Nc1nc(Nc2cc(OC)ncc2C)ncc1Cl [Compound I-240, N-(2-((5-chloro-2-((2-methoxy-5-methylpyridin-4-yl)amino)pyrimidin-4-yl)amino)phenyl)acrylamide]
- ERK1 Mass Mod (%) (Erk1 [2]): E (provided a mass modification of ≧70%)
- p-RSK inhibition at 6 hr (%) [3]: E (provided a p-RSK inhibition percent of ≧70%)
- IC50 (MEK1 activated ERK1): < 100 nM

Structure (SMILES): C=CC(=O)Nc1cc(C)ccc1Nc1nc(Nc2cc(OC)ncc2C)ncc1Cl [Compound I-241, N-(2-((5-chloro-2-((2-methoxy-5-methylpyridin-4-yl)amino)pyrimidin-4-yl)amino)-5-methylphenyl)acrylamide]
- ERK1 Mass Mod (%) (Erk1 [2]): E (provided a mass modification of ≧70%)
- p-RSK inhibition at 6 hr (%) [3]: E (provided a p-RSK inhibition percent of ≧70%)
- IC50 (MEK1 activated ERK1): < 100 nM

Structure (SMILES): C=CC(=O)Nc1cc(OC)ccc1Nc1nc(Nc2cc(OC)ncc2C)ncc1Cl [Compound I-242, N-(2-((5-chloro-2-((2-methoxy-5-methylpyridin-4-yl)amino)pyrimidin-4-yl)amino)-5-methoxyphenyl)acrylamide]
- ERK1 Mass Mod (%) (Erk1 [2]): E (provided a mass modification of ≧70%)
- p-RSK inhibition at 6 hr (%) [3]: E (provided a p-RSK inhibition percent of ≧70%)
- IC50 (MEK1 activated ERK1): < 100 nM
